# Reference: ChEMBL document CHEMBL1201862, “PubChem BioAssay data set” (2004)
#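 Test compounds were applied to cells in 96-well plates for 48 hours at 5 doses. GI50 is the concentration that inhibits growth by half.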 Active and inactive are the calls of the source. Rule as the data show it: active = GI50 up to about 1.1 µM and inactive = higher.
# Columns and labels:
# Experiment in all cases: NCI tumour cell line growth inhibition, 48 h
# [1] = test system: SW-620
# [2] = test system: SF-295
# [3] = test system: MDA-N
# [4] = test system: A549
# [5] = test system: RPMI-8226
# [6] = test system: MCF7
# [7] = test system: UACC-62
# [8] = test system: IGROV-1
# [9] = test system: SF-268
# [10] = test system: CCRF-CEM
# [11] = test system: RXF 393
# [12] = test system: SK-MEL-2
# [13] = test system: MDA-MB-231
# [14] = test system: CAKI-1
# [15] = test system: NCI-H226
# [16] = test system: OVCAR-8
# [17] = test system: PC-3
# [18] = test system: SNB-75
# [19] = test system: NCI-H460
# [20] = test system: SK-OV-3
# [21] = test system: EKVX
# [22] = test system: 786-0
# [23] = test system: U-251
# [24] = test system: HOP-92
# [25] = test system: KM12
# [26] = test system: OVCAR-3
# [27] = test system: NCI-H23
# [28] = test system: K562
# [29] = test system: COLO 205
# [30] = test system: SK-MEL-5
# [31] = test system: A498
# [32] = test system: HL-60
# [33] = test system: Malme-3M
# [34] = test system: HT-29
# [35] = test system: T47D
# [36] = test system: SF-539
# [37] = test system: MOLT-4
# [38] = test system: MDA-MB-435
# [39] = test system: HCC 2998
# [40] = test system: HCT-116
# [41] = test system: SK-MEL-28
# [42] = test system: SNB-19
# [43] = test system: LOX IMVI
# [44] = test system: OVCAR-5
# [45] = test system: Hs-578T
# [46] = test system: SR
# [47] = test system: M14
# [48] = test system: NCI-H522
# [49] = test system: ACHN
# [50] = test system: UACC-257
# [51] = test system: HCT-15
# [52] = test system: SN12C
# [53] = test system: UO-31
# [54] = test system: OVCAR-4
# [55] = test system: NCI/ADR-RES
# [56] = test system: DU-145
# [57] = test system: HOP-62
# [58] = test system: TK-10
# [59] = test system: BT-549
compound,measurement,setting,value
COc1ccc(CCNC(=S)NC=C2C(=O)c3ccccc3C2=O)cc1OC,GI50,[1],> 100 µM (inactive)
same,GI50,[2],> 100 µM (inactive)
same,GI50,[3],> 100 µM (inactive)
same,GI50,[4],> 100 µM (inactive)
same,GI50,[5],17.9 µM (inactive)
same,GI50,[6],89.9 µM (inactive)
same,GI50,[7],> 100 µM (inactive)
same,GI50,[8],> 100 µM (inactive)
same,GI50,[9],> 100 µM (inactive)
same,GI50,[10],> 100 µM (inactive)
same,GI50,[11],> 100 µM (inactive)
same,GI50,[12],> 100 µM (inactive)
same,GI50,[13],68.1 µM (inactive)
same,GI50,[14],> 100 µM (inactive)
same,GI50,[15],> 100 µM (inactive)
same,GI50,[16],> 100 µM (inactive)
same,GI50,[17],> 100 µM (inactive)
same,GI50,[18],19.8 µM (inactive)
same,GI50,[19],10 µM (inactive)
same,GI50,[20],> 100 µM (inactive)
same,GI50,[21],> 100 µM (inactive)
same,GI50,[22],> 100 µM (inactive)
same,GI50,[23],> 100 µM (inactive)
same,GI50,[24],0.741 µM (active)
same,GI50,[25],> 100 µM (inactive)
same,GI50,[26],0.0982 µM (active)
same,GI50,[27],> 100 µM (inactive)
same,GI50,[28],> 100 µM (inactive)
same,GI50,[29],> 100 µM (inactive)
same,GI50,[30],> 100 µM (inactive)
same,GI50,[31],> 100 µM (inactive)
same,GI50,[32],93.1 µM (inactive)
same,GI50,[33],> 100 µM (inactive)
same,GI50,[34],> 100 µM (inactive)
same,GI50,[35],> 100 µM (inactive)
same,GI50,[36],0.433 µM (active)
same,GI50,[37],83.9 µM (inactive)
same,GI50,[38],> 100 µM (inactive)
same,GI50,[39],> 100 µM (inactive)
same,GI50,[40],> 100 µM (inactive)
same,GI50,[41],> 100 µM (inactive)
same,GI50,[42],> 100 µM (inactive)
same,GI50,[43],> 100 µM (inactive)
same,GI50,[44],> 100 µM (inactive)
same,GI50,[45],14.8 µM (inactive)
same,GI50,[46],82 µM (inactive)
same,GI50,[47],> 100 µM (inactive)
same,GI50,[48],> 100 µM (inactive)
same,GI50,[49],> 100 µM (inactive)
same,GI50,[50],> 100 µM (inactive)
same,GI50,[51],> 100 µM
same,GI50,[52],> 100 µM (inactive)
same,GI50,[53],27.7 µM (inactive)
same,GI50,[54],> 100 µM (inactive)
same,GI50,[55],> 100 µM (inactive)
same,GI50,[56],> 100 µM (inactive)
same,GI50,[57],> 100 µM (inactive)
COc1cc(C(=O)NC(CCN)(c2ccccc2)c2ccccc2)cc(OC)c1OC,GI50,[1],29.6 µM (inactive)
same,GI50,[2],21.6 µM (inactive)
same,GI50,[3],19.2 µM (inactive)
same,GI50,[4],21.3 µM (inactive)
same,GI50,[5],> 10 µM (inactive)
same,GI50,[6],> 31.6 µM (inactive)
same,GI50,[7],> 31.6 µM (inactive)
same,GI50,[8],25.1 µM (inactive)
same,GI50,[9],29.1 µM (inactive)
same,GI50,[10],> 10 µM (inactive)
same,GI50,[11],10.4 µM (inactive)
same,GI50,[12],63.2 µM (inactive)
same,GI50,[58],28.8 µM (inactive)
same,GI50,[13],16.9 µM (inactive)
same,GI50,[14],35.4 µM (inactive)
same,GI50,[15],30.8 µM (inactive)
same,GI50,[16],> 31.6 µM (inactive)
same,GI50,[17],> 100 µM (inactive)
same,GI50,[18],17 µM (inactive)
same,GI50,[19],19.2 µM (inactive)
same,GI50,[20],> 31.6 µM (inactive)
same,GI50,[21],> 31.6 µM (inactive)
same,GI50,[22],22.9 µM (inactive)
same,GI50,[23],53.2 µM (inactive)
same,GI50,[24],15.3 µM (inactive)
same,GI50,[25],29.2 µM (inactive)
same,GI50,[26],56.8 µM (inactive)
same,GI50,[27],26.3 µM (inactive)
same,GI50,[28],12.9 µM (inactive)
same,GI50,[29],14.1 µM (inactive)
same,GI50,[30],13 µM (inactive)
same,GI50,[31],12.6 µM (inactive)
same,GI50,[32],12.2 µM (inactive)
same,GI50,[33],13.5 µM (inactive)
same,GI50,[34],16.8 µM (inactive)
same,GI50,[35],23.4 µM (inactive)
same,GI50,[36],> 65.2 µM (inactive)
same,GI50,[37],10.8 µM (inactive)
same,GI50,[38],16 µM (inactive)
same,GI50,[39],13.4 µM (inactive)
same,GI50,[40],> 42.4 µM (inactive)
same,GI50,[41],13.8 µM (inactive)
same,GI50,[42],> 58.5 µM (inactive)
same,GI50,[43],16.7 µM (inactive)
same,GI50,[44],> 87.5 µM (inactive)
same,GI50,[45],> 56.2 µM (inactive)
same,GI50,[46],15.6 µM (inactive)
same,GI50,[47],13.9 µM (inactive)
same,GI50,[48],16.6 µM (inactive)
same,GI50,[49],24.8 µM (inactive)
same,GI50,[50],16.8 µM (inactive)
same,GI50,[51],> 31.6 µM
same,GI50,[52],21.7 µM (inactive)
same,GI50,[53],20.9 µM (inactive)
same,GI50,[54],21.2 µM (inactive)
same,GI50,[55],42.7 µM (inactive)
same,GI50,[56],> 31.6 µM (inactive)
same,GI50,[57],> 31.6 µM (inactive)
O=C(O)COc1cc(-c2ccccc2F)nc2cc3c(cc12)OCO3,GI50,[1],> 100 µM (inactive)
same,GI50,[2],> 100 µM (inactive)
same,GI50,[59],98.6 µM (inactive)
same,GI50,[3],> 100 µM (inactive)
same,GI50,[4],> 100 µM (inactive)
same,GI50,[5],> 100 µM (inactive)
same,GI50,[6],> 100 µM (inactive)
same,GI50,[7],> 100 µM (inactive)
same,GI50,[8],> 100 µM (inactive)
same,GI50,[9],> 100 µM (inactive)
same,GI50,[10],> 100 µM (inactive)
same,GI50,[11],> 100 µM (inactive)
same,GI50,[12],> 100 µM (inactive)
same,GI50,[58],> 100 µM (inactive)
same,GI50,[13],> 100 µM (inactive)
same,GI50,[14],> 100 µM (inactive)
same,GI50,[15],> 100 µM (inactive)
same,GI50,[16],> 100 µM (inactive)
same,GI50,[17],> 100 µM (inactive)
same,GI50,[18],> 100 µM (inactive)
same,GI50,[20],> 100 µM (inactive)
same,GI50,[21],> 100 µM (inactive)
same,GI50,[22],> 100 µM (inactive)
same,GI50,[23],> 100 µM (inactive)
same,GI50,[24],61.8 µM (inactive)
same,GI50,[25],> 100 µM (inactive)
same,GI50,[26],> 100 µM (inactive)
same,GI50,[27],> 100 µM (inactive)
same,GI50,[28],> 100 µM (inactive)
same,GI50,[29],> 100 µM (inactive)
same,GI50,[30],> 100 µM (inactive)
same,GI50,[33],> 100 µM (inactive)
same,GI50,[34],> 100 µM (inactive)
same,GI50,[35],> 100 µM (inactive)
same,GI50,[36],> 100 µM (inactive)
same,GI50,[37],> 100 µM (inactive)
same,GI50,[38],> 100 µM (inactive)
same,GI50,[39],> 100 µM (inactive)
same,GI50,[40],> 100 µM (inactive)
same,GI50,[41],> 100 µM (inactive)
same,GI50,[43],> 100 µM (inactive)
same,GI50,[44],> 100 µM (inactive)
same,GI50,[46],> 100 µM (inactive)
same,GI50,[47],> 100 µM (inactive)
same,GI50,[49],> 100 µM (inactive)
same,GI50,[50],> 100 µM (inactive)
same,GI50,[51],> 100 µM
same,GI50,[52],> 100 µM (inactive)
same,GI50,[55],> 100 µM (inactive)
same,GI50,[56],> 100 µM (inactive)
same,GI50,[57],> 100 µM (inactive)
